Experimental findings from US20230181746A1, “BENZOYLHYDRAZIDE-DERIVED HDAC DEGRADERS AS THERAPEUTICS FOR TREATING CANCER AND OTHER HUMAN DISEASES” (University of Florida Research Foundation, Inc., priority 2020, published 2023) are described below.

The target in one experiment is HDAC1 (Homo sapiens, UniProt Q13547). The experiment in a line: In vitro HDAC activity assay (HDAC-Glo I/II), HDAC1. Type of experiment: biochemical. More on the design: purchased Enzo Life Sciences BML-SE456-0050. Conditions: average of three independent assays ± standard deviation. As for the experimental part: (§1) Purified HDAC1, HDAC2, and HDAC3 (in complex with the deacetylase activation domain of the human NCOR2 (amino acids 395-498)) were obtained from Enzo Life Sciences (HDAC1, catalog # BML-SE456-0050) and BPS Bioscience (HDAC2, catalog #50002 and HDAC3, catalog #50003), respectively. The enzyme activities were tested using the HDAC-Glo I/II reagents (Promega) according to a protocol provided by the manufacturer.

In a further experiment the test system is MDA-MB-468 cells. The experiment in a line: Cell viability assay (CellTiter-Glo). Type of experiment: cell-based. As for the experimental part:
MDA-MB-468, MDA-MB-231, and T47D cells were treated with the indicated compounds at different concentrations for 72 h. Cell viability was assessed with CellTiter-Glo® reagents.
(§2) Cell lines were obtained from ATCC and subsequently authenticated. Cells were cultured with DMEM supplemented with 10% bovine calf serum, penicillin to 10 units/mL, and streptomycin to 10 μg/mL. For viability assays, 5,000 cells/well were seeded in 96-well plates. Compounds at a specified concentration or DMSO were added 24 h later. Viability assays were performed 72 h after compound addition using the CellTiter-Glo reagents (Promega). For colony formation assay, cells (˜1,000 cells/well) were seeded in a 24-well plate in quadruplicates. At 24 h after seeding, DMSO, XZ9002, or XZ9002-NC were added at a specified concentration. Medium was replaced with freshly prepared medium containing DMSO, XZ9002 or XZ9002-NC every five days until visible colonies appeared, typically in 15 to 20 days after initial cell seeding. Cells were fixed with 4% paraformaldehyde for 15 min and stained with 2% methylene blue in 20% ethanol for 30 min to 1 h. The cells were washed twice with distilled water and dried in air. For western blotting, cell cultures were exposed to compounds as indicated in relevant figures. Medium was removed from culture plate, and 1 x passive lysis buffer was then added, the plates were frozen at −80° C. overnight and thawed at room temperature. The total cell lysates were mixed with a one fifth volume of 6x SDS sample buffer, heated at 95° C. for 5 min and cooled on ice. The lysates were cleared by centrifugation and then subjected to SDS-PAGE and western blotting essentially as described. […]
On the technique in general: Cellular ATP, detected with luciferase, serves as a proxy for viable cell number.

The target in experiment [1] is T1, HDAC3 (in complex with the deacetylase activation domain of the human NCOR2 (amino acids 395-498)) (Homo sapiens, UniProt O15379).
T1 construct: purchased BPS Bioscience 50003
As to the kind of experiment: In vitro HDAC activity assay (HDAC-Glo I/II), HDAC3. The following applies: for IC50: HDAC-Glo I/II, average of three independent assays ± standard deviation. Type of experiment: biochemical. The procedure:
as §1

Experiment [2] addresses T2, HDAC2 (Homo sapiens, UniProt Q92769). As to the kind of experiment: In vitro HDAC activity assay (HDAC-Glo I/II), HDAC2. Conditions: average of three independent assays ± standard deviation. Type of experiment: biochemical. Details: purchased BPS Bioscience 50002. The procedure: as §1
Experiment [3] has as its target T2, HDAC2. The experiment in a line: HDAC2 protein level in breast cancer cell lines, Western blot. Type of experiment: cell-based. The following applies: MCF7 cells, 4 h (FIG. 8A). The procedure:
FIG. 3A: Western blot showing HDAC protein levels in MDA-MB-468 cells treated with the indicated concentration of XZ9002 for 14 h. FIG. 3B: pretreatment with 1 μM MG132, or 10 μM VHL032 for 1 h blocked the degradation of HDAC3 by XZ9002 {125 nM}. […] NC: XZ9002-NC. FIG. 3C: time-dependent experiment in MDA-MB-468 cells after treatment with 125 nM XZ9002 at the indicated time points. FIG. 3D: MDA-MB-468 cells were incubated with 125 nM of XZ9002 for 14 h followed by drug washout, and incubation of the cells in drug-free medium for an additional time. Data are presented as representative figures of two independent experiments.
The culture of the triple-negative breast cancer cell line MDA-MB-468 and the ER+ breast cancer cell line T47D was exposed to vehicle control (DMSO) and the indicated compounds at specified concentrations for 14 h. Cells were lysed for WB with antibodies against the indicated proteins. Antibodies against acetylated histones at specific sites (H3K27 and H4K5) and acetyl-lysine were used to assess levels of histone acetylation. Levels of HDAC3 were normalized against that of tubulin and % of HDAC3 protein levels in cells treated with the indicated compounds relative to that in DMSO control is shown.
FIGS. 8A-8B show the cellular activity of XZ9002. […] Cells were lysed for WB. The relative HDAC3 protein level in each sample is shown. […]

For another experiment, the target named is HDAC3 (Homo sapiens, UniProt O15379). As to the kind of experiment: HDAC3 degradation in breast cancer cell lines, Western blot. Type of experiment: cell-based. More on the design: endogenous in cells; host or cells: MDA-MB-468, T47D, MCF7. Conditions: MCF7 cells, 4 h (FIG. 8A). The source says:
Data are presented as representative figures of two independent experiments.
Cells were lysed for WB with antibodies against the indicated proteins. Antibodies against acetylated histones at specific sites (H3K27 and H4K5) and acetyl-lysine were used to assess levels of histone acetylation.
Cells were lysed for WB. […] The indicated BC cell lines were exposed to DMSO, XZ9002, or XZ9002-NC at the indicated concentrations. Colonies were fixed and stained.
Cell lines were obtained from ATCC and subsequently authenticated. Cells were cultured with DMEM supplemented with 10% bovine calf serum, penicillin to 10 units/mL, and streptomycin to 10 μg/mL. For viability assays, 5,000 cells/well were seeded in 96-well plates. […] For colony formation assay, cells (˜1,000 cells/well) were seeded in a 24-well plate in quadruplicates. […] Medium was replaced with freshly prepared medium containing DMSO, XZ9002 or XZ9002-NC every five days until visible colonies appeared, typically in 15 to 20 days after initial cell seeding. Cells were fixed with 4% paraformaldehyde for 15 min and stained with 2% methylene blue in 20% ethanol for 30 min to 1 h. The cells were washed twice with distilled water and dried in air. For western blotting, cell cultures were exposed to compounds as indicated in relevant figures. Medium was removed from culture plate, and 1 x passive lysis buffer was then added, the plates were frozen at −80° C. overnight and thawed at room temperature. The total cell lysates were mixed with a one fifth volume of 6x SDS sample buffer, heated at 95° C. for 5 min and cooled on ice. The lysates were cleared by centrifugation and then subjected to SDS-PAGE and western blotting essentially as described.

Experiment [4] has as its system non-small cell lung cancer (NSCLC) cell line H1299. The experiment in a line: Clonogenic growth assay, H1299. Type of experiment: cell-based. The following applies: H1299, treatment for 10 days. The procedure:
H1299 cells were exposed to DMSO, or 28c at the indicated concentrations. Colonies were fixed and stained after treatment for 10 days.
as §2, with “temperature.” for “temperature. The total cell lysates were mixed with a one fifth volume of 6x SDS sample buffer, heated at 95° C. for 5 min and cooled on ice. The lysates were cleared by centrifugation and then subjected to SDS-PAGE and western blotting essentially as described.”

T2 sequence (Q92769 whole entry): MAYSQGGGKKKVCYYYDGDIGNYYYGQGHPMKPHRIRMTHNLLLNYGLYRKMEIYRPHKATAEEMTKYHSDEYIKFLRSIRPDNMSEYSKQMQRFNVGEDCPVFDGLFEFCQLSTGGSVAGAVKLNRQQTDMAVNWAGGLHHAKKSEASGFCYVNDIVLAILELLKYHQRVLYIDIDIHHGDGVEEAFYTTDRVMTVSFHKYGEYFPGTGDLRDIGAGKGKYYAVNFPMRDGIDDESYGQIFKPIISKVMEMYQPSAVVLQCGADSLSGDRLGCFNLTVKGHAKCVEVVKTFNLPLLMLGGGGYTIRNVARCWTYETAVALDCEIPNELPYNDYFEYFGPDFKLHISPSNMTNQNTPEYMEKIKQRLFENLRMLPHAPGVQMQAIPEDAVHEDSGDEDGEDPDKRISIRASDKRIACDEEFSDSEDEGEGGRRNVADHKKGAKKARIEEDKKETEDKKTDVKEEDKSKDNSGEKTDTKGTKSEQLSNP
T1 sequence (O15379 whole entry, the tested form may be a part): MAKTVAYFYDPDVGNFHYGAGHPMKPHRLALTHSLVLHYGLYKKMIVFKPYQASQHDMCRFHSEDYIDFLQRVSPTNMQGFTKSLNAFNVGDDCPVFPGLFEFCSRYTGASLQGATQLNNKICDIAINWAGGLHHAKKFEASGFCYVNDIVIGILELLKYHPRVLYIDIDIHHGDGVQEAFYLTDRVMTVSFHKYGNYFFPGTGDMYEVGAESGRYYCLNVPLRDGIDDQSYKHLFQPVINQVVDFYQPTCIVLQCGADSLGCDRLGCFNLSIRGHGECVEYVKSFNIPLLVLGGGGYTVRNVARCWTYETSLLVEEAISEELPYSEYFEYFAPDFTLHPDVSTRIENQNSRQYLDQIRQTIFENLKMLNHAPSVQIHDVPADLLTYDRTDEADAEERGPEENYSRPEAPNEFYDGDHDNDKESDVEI
T1 sequence (Q9Y618 395-498 partner limits assumed): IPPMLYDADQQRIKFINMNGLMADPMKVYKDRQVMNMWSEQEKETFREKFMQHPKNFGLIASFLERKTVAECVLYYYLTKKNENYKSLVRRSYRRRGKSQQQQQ
HDAC1, sequence (Q13547 whole entry, the tested form may be a part): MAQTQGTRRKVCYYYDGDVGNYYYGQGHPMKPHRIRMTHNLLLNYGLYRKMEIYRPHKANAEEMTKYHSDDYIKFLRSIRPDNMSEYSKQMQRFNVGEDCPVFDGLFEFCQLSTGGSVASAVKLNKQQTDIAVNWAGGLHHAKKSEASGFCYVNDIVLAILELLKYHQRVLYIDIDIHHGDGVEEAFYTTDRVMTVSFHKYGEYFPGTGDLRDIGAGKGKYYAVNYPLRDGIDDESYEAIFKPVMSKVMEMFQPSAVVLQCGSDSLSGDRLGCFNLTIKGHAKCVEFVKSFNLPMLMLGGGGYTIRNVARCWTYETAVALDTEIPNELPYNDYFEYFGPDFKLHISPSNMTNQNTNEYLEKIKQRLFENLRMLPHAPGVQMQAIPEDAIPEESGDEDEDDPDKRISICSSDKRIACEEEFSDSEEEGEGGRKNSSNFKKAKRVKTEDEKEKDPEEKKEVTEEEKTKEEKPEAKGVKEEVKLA
HDAC3, sequence (O15379 whole entry): as the sequence (O15379 whole entry, the tested form may be a part) above
HDAC3, sequence (Q9Y618 395-498 partner limits assumed): as the sequence (Q9Y618 395-498 partner limits assumed) above

For orientation: IC50 means the concentration that inhibits the measured activity by half. With `CCCNNC(=O)c1ccc(-c2ccc(NC(=O)CCCCC(=O)N[C@H](C(=O)N3C[C@H](O)C[C@H]3C(=O)N[C@@H](C)c3ccc(-c4scnc4C)cc3)C(C)(C)C)cc2)cc1` [Compound 8b, N^1—((S)-1-((2S,4R)-4-Hydroxy-2-(((S)-1-(4-(4-methylthiazol-5-yl)phenyl)ethyl)carbamoyl)pyrrolidin-1-yl)-3,3-dimethyl-1-oxobutan-2-yl)-N^6-(4′-(2-propylhydrazine-1-carbonyl)-[1,1′-biphenyl]-4-yl)adipamide], the concentration for half-maximal inhibition (IC50) on HDAC1 is 360 ± 60 nM; in experiment [1], 320 ± 30 nM; against HDAC2 [2] it was 1650 ± 70 nM. The “antiproliferative activity (in words)” value with MDA-MB-468 cells (MDA-MB-468, 72 h, similar trends in MDA-MB-231 and T47D cells) is reported as “decreased antiproliferative activity”.

For `CCCNNC(=O)c1ccc(-c2ccc(NC(C)=O)cc2)cc1` [Compound 15, N-(4′-(2-propylhydrazine-1-carbonyl)[1,1′-biphenyl]-4-yl)acetamide], on HDAC2 [3], the “HDAC2 degradation (in words)” value is “does not significantly degrade”. For the same molecule, the IC50 against HDAC1 worked out at 72 ± 10 nM; with MDA-MB-468 cells (Homo sapiens, MDA-MB-468 cell line, 72 h, CellTiter-Glo, read-out: IC50 cytotoxicity (cell viability)), 990 nM; in experiment [1], 13 ± 1 nM; against HDAC2 [2] it was 82 ± 25 nM. In addition, the “preference for HDAC3” value in experiment [1] (against the other tested HDAC isoforms) was not below 13 fold. The “HDAC3 degradation (in words)” value at HDAC3 was “does not significantly degrade”.

Turning to `CCCNNC(=O)c1ccc(N2CCN(CCCCCCCC(=O)N[C@H](C(=O)N3C[C@H](O)C[C@H]3C(=O)N[C@@H](C)c3ccc(-c4scnc4C)cc3)C(C)(C)C)CC2)cc1` [Compound 28c, (2S,4R)-1-((S)-3,3-dimethyl-2-(8-(4-(4-(2-propylhydrazine-1-carbonyl)phenyl)piperazinyl)octanamido)butanoyl)-4-hydroxy-N—((S)-1-(4-(4-methylthiazol-5-yl)phenyl)ethyl)pyrrolidine carboxamide], the “inhibition of clonogenic growth” value in experiment [4] is given as “effective to inhibit clonogenic growth”.
